Legend:
Rat M4 = target: T1, Rat M4 (Rattus norvegicus, UniProt P08485); test: mAChR M4 cell-based functional calcium flux assay (rat M4/Gqi5/CHO cells); conditions: for Emin (rat M4): % ACh maximum at 30 μM; for IC50: decrease of the response to an EC80 concentration of acetylcholine
T1 construct: expressed in transfected cells; host or cells: CHO-K1 (ATCC), stably expressing M4 and Gqi5
T1 sequence (P08485 1-478): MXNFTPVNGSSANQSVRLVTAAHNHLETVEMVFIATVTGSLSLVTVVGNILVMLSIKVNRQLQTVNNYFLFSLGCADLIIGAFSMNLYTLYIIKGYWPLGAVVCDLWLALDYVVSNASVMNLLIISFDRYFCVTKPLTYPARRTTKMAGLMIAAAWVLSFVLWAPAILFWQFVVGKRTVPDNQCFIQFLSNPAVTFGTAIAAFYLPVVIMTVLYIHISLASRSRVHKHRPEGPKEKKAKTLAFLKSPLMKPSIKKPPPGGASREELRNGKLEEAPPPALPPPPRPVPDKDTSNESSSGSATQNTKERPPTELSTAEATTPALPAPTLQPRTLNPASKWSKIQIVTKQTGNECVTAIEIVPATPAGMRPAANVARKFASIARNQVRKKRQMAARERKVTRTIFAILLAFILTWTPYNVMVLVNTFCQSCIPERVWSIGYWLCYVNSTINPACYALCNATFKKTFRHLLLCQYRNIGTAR
Summary of the method: (§1)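 CHO-K1 cells stably co-expressing M4 of the given species with chimeric Gqi5 were loaded with Fluo-4 AM and read for calcium flux. Compounds (10-point, 1:3 dilutions) were added first, followed by an acetylcholine EC20 at 143 s and an EC80 at 268 s. IC50 reflects the concentration-dependent fall in the EC80 response, fitted with a four-parameter logistic.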

Human M4 = target: T2, Human M4 (Homo sapiens, UniProt P08173); test: mAChR M4 cell-based functional calcium flux assay (human M4/Gqi5/CHO cells); conditions: for Emin (human M4): % ACh maximum at 30 μM; for IC50: decrease of the response to an EC80 concentration of acetylcholine
T2 construct: expressed in transfected cells; host or cells: CHO-K1 (ATCC), stably expressing M4 and Gqi5
T2 sequence (P08173 1-479): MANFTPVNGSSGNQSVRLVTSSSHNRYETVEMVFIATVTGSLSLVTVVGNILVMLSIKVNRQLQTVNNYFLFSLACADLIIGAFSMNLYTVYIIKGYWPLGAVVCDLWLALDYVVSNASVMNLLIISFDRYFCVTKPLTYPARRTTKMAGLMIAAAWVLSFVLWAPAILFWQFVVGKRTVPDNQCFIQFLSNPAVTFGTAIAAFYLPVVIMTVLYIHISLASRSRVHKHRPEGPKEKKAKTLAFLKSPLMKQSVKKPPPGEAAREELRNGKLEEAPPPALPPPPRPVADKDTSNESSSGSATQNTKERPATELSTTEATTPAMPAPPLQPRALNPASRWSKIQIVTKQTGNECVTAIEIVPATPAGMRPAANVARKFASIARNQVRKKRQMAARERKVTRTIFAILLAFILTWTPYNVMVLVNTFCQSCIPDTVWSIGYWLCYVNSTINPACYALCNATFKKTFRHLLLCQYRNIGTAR
Summary of the method: as §1

Emin (rat M4) (Rat M4) [%]	IC50 (Rat M4) [nM]	Emin (human M4) (Human M4) [%]	IC50 (Human M4) [nM]	Compound
5	13.9	5	5	CC(C)(C)CCN1CCC2(CC1)CC2CNc1ccc(N2CCOCC2)nn1 (stereo not shown) [Compound 79, N-[[6-(3,3-dimethylbutyl)-6-azaspiro[2.5]octan-2-yl]methyl]-6-morpholino-pyridazin-3-amine]
4.71	278	2.71	64.7	Cc1nn(C)cc1-c1cnc(NCC2CC23CCN(CCC(C)(C)C)CC3)cn1 (stereo not shown) [Compound 23, N-[[6-(3,3-dimethylbutyl)-6-azaspiro[2.5]octan-2-yl]methyl]-5-(1,3-dimethylpyrazol-4-yl)pyrazin-2-amine]
2.40	220	2.15	39.3	CC(CN1CCC2(CC1)CC2CNc1ccc(-c2cc(F)ccc2Cl)nn1)C(C)(C)C (stereo not shown) [Compound 12, 6-(2-chloro-5-fluoro-phenyl)-N-[[6-(2,3,3-trimethylbutyl)-6-azaspiro[2.5]octan-2-yl]methyl]pyridazin-3-amine]
3.41	47.8	2.73	16	CC(C)(C)CCN1CCC2(CC1)CC2CNc1ccc(-c2ccc3ccncc3c2)nn1 (stereo not shown) [Compound 44, N-[[6-(3,3-dimethylbutyl)-6-azaspiro[2.5]octan-2-yl]methyl]-6-(7-isoquinolyl)pyridazin-3-amine]
5	114	4	41.2	CC(C)(C)CCN1CCC2(CC1)CC2CNc1ccc(N2CCC(F)(F)C2)nn1 (stereo not shown) [Compound 75, 6-(3,3-difluoropyrrolidin-1-yl)-N-((6-(3,3-dimethylbutyl)-6-azaspiro[2.5]octan-1-yl)methyl)pyridazin-3-amine]
4.48	1500	4.04	495	Fc1ccc(Cl)c(-c2ccc(NCC3CC34CCN(CC3CC5C=CC3C5)CC4)nc2)c1 (stereo not shown) [Compound 68, N-[[6-(5-bicyclo[2.2.1]hept-2-enylmethyl)-6-azaspiro[2.5]octan-2-yl]methyl]-5-(2-chloro-5-fluoro-phenyl)pyridin-2-amine]
4.86	779	4.42	1260	CC(C)(C)CCN1CCC2(CC1)CC2CNc1ncc(-c2ccccc2)s1 (stereo not shown) [Compound 72, N-[[6-(3,3-dimethylbutyl)-6-azaspiro[2.5]octan-2-yl]methyl]-5-phenyl-thiazol-2-amine]
3.33	105	2.24	16	CC(C)(C)CCN1CCC2(CC1)CC2CNc1ccc(-c2cccc(F)c2Cl)nn1 (stereo not shown) [Compound 41, 6-(2-chloro-3-fluoro-phenyl)-N-[[6-(3,3-dimethylbutyl)-6-azaspiro[2.5]octan-2-yl]methyl]pyridazin-3-amine]
10.8	3640	65.0	928	Cc1cnn(C)c1-c1ccc(NC(=O)C2CC23CCN(CC2CC4C=CC2C4)CC3)nn1 (stereo not shown) [Compound 8, 6-(5-bicyclo[2.2.1]hept-2-enylmethyl)-N-[6-(2,4-dimethylpyrazol-3-yl)pyridazin-3-yl]-6-azaspiro[2.5]octane-2-carboxamide]
11.8	3600	4.18	384	Cc1nn(C)cc1-c1ccc(NCC2CC23CCN(Cc2ccccc2)CC3)nn1 (stereo not shown) [Compound 58, N-[(6-benzyl-6-azaspiro[2.5]octan-2-yl)methyl]-6-(1,3-dimethylpyrazol-4-yl)pyridazin-3-amine]
4.24	519	3.08	6.51	Fc1ccc(Cl)c(-c2ccc(NCC3CC34CCN(CC3CCCOC3)CC4)nn2)c1 (stereo not shown) [Compound 15, 6-(2-chloro-5-fluoro-phenyl)-N-[[6-(tetrahydropyran-3-ylmethyl)-6-azaspiro[2.5]octan-2-yl]methyl]pyridazin-3-amine]
3.11	117	3.06	12.2	CC(C)(C)CCN1CCC2(CC1)CC2CNc1ccc(-c2ccc3c(c2)OCO3)nn1 (stereo not shown) [Compound 46, 6-(1,3-benzodioxol-5-yl)-N-[[6-(3,3-dimethylbutyl)-6-azaspiro[2.5]octan-2-yl]methyl]pyridazin-3-amine]
3	257	5	33.9	c1cc(N2CCOCC2)nnc1NCC1CC12CCN(CC13CC4CC(CC(C4)C1)C3)CC2 (stereo not shown) [Compound 84, N-[[6-(1-adamantylmethyl)-6-azaspiro[2.5]octan-2-yl]methyl]-6-morpholino-pyridazin-3-amine]
53.6	9490	19.4	4690	CCCN1CCC2(CC1)CC2CNc1ccc(-c2cn(C)nc2C)nn1 (stereo not shown) [Compound 54, 6-(1,3-dimethylpyrazol-4-yl)-N-[(6-propyl-6-azaspiro[2.5]octan-2-yl)methyl]pyridazin-3-amine]
3	92.1	4	50.6	Fc1ccc(Cl)c(-c2ccc(NC[C@@H]3CC34CCN(CC3CCCCCC3)CC4)nn2)c1 [Compound 109, (R)-6-(2-chloro-5-fluorophenyl)-N-((6-(cycloheptylmethyl)-6-azaspiro[2.5]octan-1-yl)methyl)pyridazin-3-amine]
2.75	1150	2.74	74.6	Fc1ccc(Cl)c(-c2ccc(NCC3CC34CCN(Cc3ncccc3C(F)(F)F)CC4)nn2)c1 (stereo not shown) [Compound 1, 6-(2-chloro-5-fluorophenyl)-N-((6-((3-(trifluoromethyl)pyridin-2-yl)methyl)-6-azaspiro[2.5]octan-1-yl)methyl)pyridazin-3-amine]
5	16.5	3	8.18	CC(=O)Nc1ccc(-c2ccc(NC[C@@H]3CC34CCN(CC3CCCCCC3)CC4)nn2)cc1 [Compound 119, N-[4-[6-[[(2R)-6-(cycloheptylmethyl)-6-azaspiro[2.5]octan-2-yl]methylamino]pyridazin-3-yl]phenyl]acetamide]
5	223	2	25.7	Cc1cccnc1CN1CCC2(CC1)C[C@H]2CNc1ccc(-c2cc(F)ccc2Cl)nn1 [Compound 114, 6-(2-chloro-5-fluoro-phenyl)-N-[[(2R)-6-[(3-methyl-2-pyridyl)methyl]-6-azaspiro[2.5]octan-2-yl]methyl]pyridazin-3-amine]
2.94	49.7	2.88	11.2	Cc1ccsc1-c1ccc(NCC2CC23CCN(CCC(C)(C)C)CC3)nn1 (stereo not shown) [Compound 42, N-[[6-(3,3-dimethylbutyl)-6-azaspiro[2.5]octan-2-yl]methyl]-6-(3-methyl-2-thienyl)pyridazin-3-amine]
4	39.2	3	2.29	Fc1ccc(Cl)c(-c2ccc(NC[C@@H]3CC34CCN(CC3CC5CCC3O5)CC4)nn2)c1 (stereo partly drawn) [Compound 110, N-(((1R)-6-((7-oxabicyclo[2.2.1]heptan-2-yl)methyl)-6-azaspiro[2.5]octan-1-yl)methyl)-6-(2-chloro-5-fluorophenyl)pyridazin-3-amine]
3.97	313	3.87	103	Cc1nn(C)cc1-c1ccc(NCC2CC23CCN(CCC(C)(C)C)CC3)nc1 (stereo not shown) [Compound 6, N-[[6-(3,3-dimethylbutyl)-6-azaspiro[2.5]octan-2-yl]methyl]-5-(1,3-dimethylpyrazol-4-yl)pyridin-2-amine]
4.72	833	4.74	1270	C1=CC2CC1CC2CN1CCC2(CC1)CC2CNc1ncc(-c2ccccc2)s1 (stereo not shown) [Compound 71, N-[[6-(5-bicyclo[2.2.1]hept-2-enylmethyl)-6-azaspiro[2.5]octan-2-yl]methyl]-5-phenyl-thiazol-2-amine]
